Measurements as given in patent US9517227B2, “Dihydropyrazoles” (Merck Patent GmbH, priority 2011, dated 2016).

Experiments:
FSHR = molecular target: T1, FSHR (Homo sapiens, UniProt P23945); assay: EC50 of cyclic AMP production in CHO FSHR cells + EC20 FSH (Assay A); format: cell-based; settings: CHO-FSHR-LUC cells, 0.265 pM FSH (EC20), cAMP HTRF, 1 h
T1 construct: expressed in transfected cells; host or cells: CHO (Cho-FSHR-LUC-1-1-43)
T1 sequence (P23945 18-695): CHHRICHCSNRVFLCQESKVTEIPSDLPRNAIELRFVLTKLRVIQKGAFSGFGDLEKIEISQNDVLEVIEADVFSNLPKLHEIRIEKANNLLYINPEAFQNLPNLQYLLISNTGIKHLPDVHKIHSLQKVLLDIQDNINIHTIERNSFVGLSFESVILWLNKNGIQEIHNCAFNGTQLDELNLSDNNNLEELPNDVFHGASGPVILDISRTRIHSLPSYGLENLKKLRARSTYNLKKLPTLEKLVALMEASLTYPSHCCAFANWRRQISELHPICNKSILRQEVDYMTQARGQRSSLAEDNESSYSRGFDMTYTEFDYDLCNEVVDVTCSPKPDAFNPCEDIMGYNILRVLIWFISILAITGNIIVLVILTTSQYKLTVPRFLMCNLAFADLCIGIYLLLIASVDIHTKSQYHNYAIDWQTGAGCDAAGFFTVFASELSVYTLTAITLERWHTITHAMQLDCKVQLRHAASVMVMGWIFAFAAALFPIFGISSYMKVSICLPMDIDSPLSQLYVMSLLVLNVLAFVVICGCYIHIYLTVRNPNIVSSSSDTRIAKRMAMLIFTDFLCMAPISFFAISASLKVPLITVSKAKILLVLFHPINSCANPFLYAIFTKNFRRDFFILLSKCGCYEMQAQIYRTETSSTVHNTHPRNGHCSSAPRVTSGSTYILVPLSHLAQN
Description: EC50 of Cyclic AMP Production in CHO FSHR Cells+EC20 FSH (Assay A)
2500 Cho-FSHR-LUC-1-1-43 cells were plated per well in 5 μl of phenol red free DMEM/F12+1% FBS. Cells were plated in 384 well, solid white low volume plates (Greiner 784075) by Multidrop. Cells were assayed by adding 100 μl of 2×EC20 FSH/IBMX in DMEM/F12+0.1% BSA) by Multidrop to 2 μl of test compound stamped in 384 well plates (compounds are diluted 1:50). The final FSH concentration was 0.265 pM, and the final IBMX concentration was 200 μM. The compound plate map was as follows: Column 1: 2 μl of DMSO; Column 2: 2 μl of DMSO; Columns 3-12 and 13-24: 2 μl of test compound, diluted 1:4 in 100% DMSO, or 2 μl of FSH, diluted 1:4 in DMEM/F12+0.1% BSA. The starting concentration for FSH was 50 nM (final concentration was 0.5 nM). Furthermore, Column 23 contained 2 μl of EC100 FSH reference (100×) (diluted in DMEM/F12+0.1% BSA) at a final concentration of 0.5 nM, and Column 24 contained 2 μl of 1 mM AS707664/2 reference compound 2. 5 μl of compound+EC20 FSH mixture were transferred to cell plates (1:2 dilution into 5 μl of cell media). The plates were incubated at 37° C. for 1 h. 10 μl of mixed HTRF (CisBio #62AM4PEC) reagents were added per well and incubated at room temperature for 1 h. The plates were read on Envision using the cAMP HTRF—low volume 384 well protocol. The readout was the calculated fluorescence ratio (665 nm/620 nm).

[1] = molecular target: T2, follicle-stimulating hormone (FSH) receptor (Rattus norvegicus, UniProt P20395); assay: Rat granulosa EC50 FSH (Assay B); format: cell-based; settings: rat granulosa cells; for EC50: per Yanofsky et al. 2006
T2 construct: endogenous in cells; host or cells: rat granulosa cells
T2 sequence (P20395 18-692): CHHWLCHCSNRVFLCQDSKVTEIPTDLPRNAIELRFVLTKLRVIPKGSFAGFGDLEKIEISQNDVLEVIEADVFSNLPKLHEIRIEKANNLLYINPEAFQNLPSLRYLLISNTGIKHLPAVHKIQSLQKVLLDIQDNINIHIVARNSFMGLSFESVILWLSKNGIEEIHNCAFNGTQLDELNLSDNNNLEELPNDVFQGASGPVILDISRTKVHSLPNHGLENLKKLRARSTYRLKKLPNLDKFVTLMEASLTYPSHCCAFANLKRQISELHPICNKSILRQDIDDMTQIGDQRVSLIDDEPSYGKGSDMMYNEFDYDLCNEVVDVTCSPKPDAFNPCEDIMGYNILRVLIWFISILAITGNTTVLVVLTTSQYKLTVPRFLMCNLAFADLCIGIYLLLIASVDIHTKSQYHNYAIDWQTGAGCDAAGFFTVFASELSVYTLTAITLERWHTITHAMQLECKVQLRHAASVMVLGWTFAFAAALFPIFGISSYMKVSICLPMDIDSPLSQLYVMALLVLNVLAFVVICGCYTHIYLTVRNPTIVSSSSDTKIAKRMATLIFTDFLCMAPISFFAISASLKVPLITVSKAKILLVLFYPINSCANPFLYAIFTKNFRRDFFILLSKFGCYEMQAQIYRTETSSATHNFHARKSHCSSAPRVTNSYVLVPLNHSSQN
Description: Rat Granulosa EC50 FSH (Assay B)
The assay was performed pursuant to the teaching of Yanofsky et al. (2006) Allosteric activation of the follicle-stimulating hormone (FSH) receptor by selective, nonpeptide agonists. JBC 281(19): 13226-13233, which is incorporated by reference in the disclosure of the invention.

| EC50 (FSHR) | EC50 [1] | Assay B: value given in % (rat granulosa) ([1]; meaning of % not stated) | Structure (SMILES) |
| --- | --- | --- | --- |
| 21 µM | 0.814 µM | – | COc1ccc(C2=NN(C(=O)c3cccc(OC(C)(F)F)c3)CC2)cc1OC [Compound 67] |
| 23.8 µM | 1.15 µM | – | COc1ccc(C2=NN(C(=O)c3cccc(OC(F)(F)F)c3)C(C)(C)C2)cc1OC [Compound 231, [3-(3,4-Dimethoxy-phenyl)-5,5-dimethyl-4,5-dihydro-pyrazol-1-yl]-(3-trifluoromethoxy-phenyl)-methanone] |
| 35 µM | 0.363 µM | – | COc1ccc(C2=NN(C(=O)c3cccc(F)c3)C(C)(C)C2)cc1OC [Compound 129, [3-(3,4-Dimethoxy-phenyl)-5,5-dimethyl-4,5-dihydro-pyrazol-1-yl]-(3-fluoro-phenyl)-methanone] |
| 0.382 µM | – | – | COc1ccc(C2=NN(C(=O)c3cccc(F)c3)CC2(C)C)cc1OC [Compound 149, [3-(3,4-Dimethoxy-phenyl)-4,4-dimethyl-4,5-dihydro-pyrazol-1-yl]-(3-fluoro-phenyl)-methanone] |
| – | – | 144.00% | COc1ccc(C2=NN(C(=O)C(OC)c3ccccc3)CC2)cc1OC (centres unmarked) [Compound 291] |
| 22.4 µM | 0.699 µM | – | COc1ccc(C2=NN(C(=O)c3cccc(C(F)(F)F)c3)C(C)(C)C2)cc1OC [Compound 234, [3-(3,4-Dimethoxy-phenyl)-5,5-dimethyl-4,5-dihydro-pyrazol-1-yl]-(3-trifluoromethyl-phenyl)-methanone] |
| 25 µM | – | – | COc1ccc(C2=NN(C(=O)C(OC)c3ccc(Cl)cc3)CC2)cc1OC (centres unmarked) [Compound 274] |
| 24 µM | – | – | COc1ccc(C(OC)C(=O)N2CCC(c3ccc(OC)c(OC)c3)=N2)cc1 (centres unmarked) [Compound 275] |
| 2 µM | – | – | COc1ccc(C2=NN(C(=O)C(OC)c3cccc(C(F)(F)F)c3)CC2)cc1OC (centres unmarked) [Compound 277] |
| 40.3 µM | 0.656 µM | – | COc1ccc(C2=NN(C(=O)c3ccc4c(c3)OCO4)CC2)cc1OC [Compound 3] |
| 31 µM | 0.342 µM | – | COc1ccc(C2=NN(C(=O)Cc3cccc(F)c3)CC2)cc1OC [Compound 241, 1-[3-(3,4-Dimethoxy-phenyl)-4,5-dihydro-pyrazol-1-yl]-2-(3-fluoro-phenyl)-ethanone] |
| 27.8 µM | 0.216 µM | – | COc1ccc(C2=NN(C(=O)c3cccc(Br)c3)C(C)(C)C2)cc1OC [Compound 233, (3-Bromo-phenyl)-[3-(3,4-dimethoxy-phenyl)-5,5-dimethyl-4,5-dihydro-pyrazol-1-yl]-methanone] |
| 27 µM | – | – | COc1ccc(C2=NN(C(=O)C(OC)c3ccc(C)cc3)CC2)cc1OC (centres unmarked) [Compound 282] |
| 5.7 µM | – | – | COc1ccc(C2=NN(C(=O)c3ccc(C(F)(F)F)c(F)c3)CC2)cc1OC [Compound 75] |
| – | 5.4 µM | – | COc1ccc(C2=NN(C(=O)[C@H](OC)c3ccccc3)CC2)cc1OC [Compound 290] |

Continued, compound first:

| Structure (SMILES) | EC50 (FSHR) | EC50 [1] | Assay B: value given in % (rat granulosa) ([1]; meaning of % not stated) |
| --- | --- | --- | --- |
| CSc1ccc(C2=NN(C(=O)c3cccc(F)c3)CC2)cc1 [Compound 204, (3-Fluoro-phenyl)-[3-(4-methylsulfanyl-phenyl)-4,5-dihydro-pyrazol-1-yl]methanone] | 8.25 µM | – | – |
| COc1ccc(C2=NN(C(=O)c3ccccc3F)C(C)(C)C2)cc1OC [Compound 228, [3-(3,4-Dimethoxy-phenyl)-5,5-dimethyl-4,5-dihydro-pyrazol-1-yl]-(2-fluoro-phenyl)-methanone] | – | 0.134 µM | – |
| COc1ccc(C2=NN(C(=O)c3cccc(Cl)c3)C(C)(C)C2)cc1OC [Compound 251, (3-Chloro-phenyl)-[3-(3,4-dimethoxy-phenyl)-5,5-dimethyl-4,5-dihydro-pyrazol-1-yl]-methanone] | 27.1 µM | – | – |
| O=C(c1ccc2c(c1)OCO2)N1CCC(c2ccc(OC(F)(F)F)cc2)=N1 [Compound 199, Benzo[1,3]dioxol-5-yl-[3-(4-trifluoromethoxy-phenyl)-4,5-dihydro-pyrazol-1-yl]methanone] | 34.3 µM | – | – |
| COc1ccc(-c2ccn(C(=O)c3ccc4c(c3)OCO4)n2)cc1OC [Compound 148] | 2.88 µM | 3.4 µM | – |
| COc1ccc(C2=NN(C(=O)c3ccc(Br)cc3)C(C)(C)C2)cc1OC [Compound 257, (4-Bromo-phenyl)-[3-(3,4-dimethoxy-phenyl)-5,5-dimethyl-4,5-dihydro-pyrazol-1-yl]-methanone] | 33.2 µM | – | – |
| COc1ccc(C2=NN(C(=O)c3cccc(F)c3)CC2)cc1S(=O)(=O)NCc1ccccc1 [Compound 214] | 1.1 µM | – | – |
| O=C(c1cccc(F)c1)N1CCC(c2ccc(C(F)(F)F)cc2)=N1 [Compound 207] | 44.5 µM | – | – |
| COc1ccc(C2=NN(C(=O)Cc3cccc(F)c3)C(C)(C)C2)cc1OC [Compound 255, 1-[3-(3,4-Dimethoxy-phenyl)-5,5-dimethyl-4,5-dihydro-pyrazol-1-yl]-2-(3-fluoro-phenyl)-ethanone] | 35 µM | – | – |
| CSc1ccc(C2=NN(C(=O)c3ccc4c(c3)OCO4)CC2)cc1 [Compound 205, Benzo[1,3]dioxol-5-yl-[3-(4-methylsulfanyl-phenyl)-4,5-dihydro-pyrazol-1-yl]-methanone] | 30 µM | – | – |
| Cc1cccc(C2=NN(C(=O)c3cccc(F)c3)CC2)c1 [Compound 179, (3-Fluoro-phenyl)-(3-m-tolyl-4,5-dihydro-pyrazol-1-yl)-methanone] | 34 µM | – | – |
| COc1ccc(C2=NN(C(=O)c3cccc(Oc4ccccc4)c3)C(C)(C)C2)cc1OC [Compound 229, [3-(3,4-Dimethoxy-phenyl)-5,5-dimethyl-4,5-dihydro-pyrazol-1-yl]-(3-phenoxy-phenyl)-methanone] | – | 0.032 µM | – |
| Cn1ccc2cc(C3=NN(C(=O)c4cccc(F)c4)CC3)ccc21 [Compound 185] | 4.5 µM | – | – |
| CC(C)(C)Oc1ccc(C2=NN(C(=O)c3cccc(F)c3)CC2)cc1 [Compound 210] | 7.39 µM | – | – |
| COc1ccc(C2=NN(C(=O)c3cccc(F)c3)CC2)c(OC)c1OC [Compound 223] | 31.2 µM | – | – |
| O=C(c1cccc(F)c1)N1CCC(c2ccc3c(c2)OCCO3)=N1 [Compound 189] | 28 µM | – | – |
| CCc1ccc(C(=O)N2N=C(c3ccc(OC)c(OC)c3)CC2(C)C)cc1 [Compound 259, [3-(3,4-Dimethoxy-phenyl)-5,5-dimethyl-4,5-dihydro-pyrazol-1-yl]-(4-ethyl-phenyl)-methanone] | 30 µM | – | – |
| COc1ccc(C2=NN(C(=O)c3ccc(Cl)cc3)C(C)(C)C2)cc1OC [Compound 247, (4-Chloro-phenyl)-[3-(3,4-dimethoxy-phenyl)-5,5-dimethyl-4,5-dihydro-pyrazol-1-yl]-methanone] | 35.2 µM | – | – |
